The subject of experiment [1] is grafts derived from mouse iPS cells. Nature of the experiment: Transplantation experiment of mouse iPS cell-derived dopamine neural progenitor cells into striatum of SD rats (immunohistochemistry of grafts). In kind it is in vivo. Conditions: four weeks after transplantation. As to the method:
Ten-week-old Sprague-Dawley rats (SD rats, available from Shimizu Laboratory Supplies Co., Ltd.) were handled in accordance with the Guidelines for Animal Experiments of Kyoto University. Each SD rat was anesthetized, and donor cells were transplanted by stereotaxic injection into striatums on both sides. Two cell aggregates (containing 3.1×10^5 cells on average) obtained on day 9 after starting the SFEB were collected in 1 μl of PBS(-) so as to be used as the donor cells for the transplantation in each tract. To the PBS(-), Y-27632 was added at a final concentration of […]. Thereafter, intraperitoneal injection of VPA (150 mg/kg/day), ZNS sodium salt (30 mg/kg/day), E2 (80 μM/kg/day) or a saline was conducted from two days before transplanting the donor cells until a day of necropsy. For immunosuppression, cyclosporin A (CsA, manufactured by Wako Pure Chemical Industries, Ltd.) was administered to all the SD rats at a daily dose of 10 mg/kg. Four weeks after the transplantation of the donor cells, the brains of the SD rats were washed and fixed by intracardially perfusing 4% paraformaldehyde under deep anesthesia. On the day of necropsy, a blood sample was collected from each SD rat one hour after the final injection of the test compound or CsA. Such a sample was sent to SRL, Inc. (Tokyo, Japan) where the blood concentration of the administered drug (test compound) was measured.
In an in vitro experiment, a cell aggregate treated with any of the above-described test compounds on day 14 after starting the SFEB was fixed with 4% paraformaldehyde. Thereafter, the fixed cell aggregate was frozen and sliced into thin sections each having a thickness of 10 μM by using a microtome for immunocytochemistry. On the other hand, in an in vivo experiment (transplantation experiment), the brain of a SD rat or a SCID rat was taken out after the transplantation experiment to be fixed again with 4% paraformaldehyde for 2 days. Thereafter, the fixed brain of the SD rat or SCID rat was cryopreserved in 30% sucrose for 3 days, frozen, and sliced into thin sections each having a thickness of 40 μM for immunohistochemistry. The frozen sections of the sphere (spherical cell mass) and the brain were subjected to a permeabilization and blocking treatment in PBS(-) for 1 hour at room temperature to be used as samples. The PBS(-) contained 0.3% Triton-X and 2% donkey serum. Thereafter, each of the sections was incubated overnight together with a primary antibody at 4° C. Primary antibodies used in this example are a rabbit anti-tyrosine hydroxylase antibody (dilution rate of 1:400, TH; manufactured by Millipore), a mouse anti-TH antibody (dilution rate of 1:200, manufactured by Millipore), a sheep anti-TH antibody (dilution rate of 1:400, manufactured by Millipore), a mouse anti-Tubβ3 antibody (dilution rate of 1:1000, Tuj1; manufactured by Covance Inc.), a rat anti-NURR1 antibody (dilution rate of 1:1000, KAN Research Institute, Inc., Kobe, Japan), a rabbit anti-Ki67 antibody (dilution rate of 1:1000, manufactured by Novocastra: NCL-Ki67p), a rabbit anti-caspase 3 antibody (dilution rate of 1:500, manufactured by Santa Cruz Biotechnology, Inc.), a rat anti-M2M6 antibody (dilution rate of 1:50, manufactured by Developmental Study Hybridoma Bank), a mouse anti-Nestin antibody (dilution rate of 1:50; manufactured by Millipore), a rabbit anti-Pitx3 antibody (dilution rate of 1:500; manufactured by Chemicon International Inc.), a goat […] antibody (dilution rate of 1:500, Foxa2; manufactured by Santa Cruz Biotechnology, Inc.), a mouse anti-human Nuclei antibody (dilution rate of 1:1000; manufactured by Millipore), and a mouse anti-NeuN antibody (dilution rate of 1:500, manufactured by Chemicon International Inc.). After washing with PBS (0.05% Tween-20) three times, the resultant sample was incubated with an Alexa Fluor-conjugated secondary antibody for 1 hour at room temperature. […]

For experiment [2], the system named is TH+ neurons derived from mouse iPS cells. Briefly: In vitro survival of TH+ neurons with caspase 3 expression as index of apoptosis. Conditions: control 18.0±5.9%; no significant difference among four groups. It counts as cell-based. As to the method: After the cell sorting, in order to induce the reaggregation of the cells, a PSA-NCAM^+ cell group was seeded in a DMEM/F12 medium (manufactured by Wako Pure Chemical Industries, Ltd.) in a 96-well plate at a concentration (cell density) of 20000 cells/well. The DMEM/F12 medium contained 1% N-2 supplement, 200 nM ascorbic acid, 2% B27 supplement (manufactured by Invitrogen), 0.5 mM L-glutamine and 1% P/S. In order to prevent apoptosis, a ROCK inhibitor, Y-27632 (manufactured by Wako Pure Chemical Industries, Ltd.), was used at a concentration of 30 μM during the cell sorting process and the following overnight cultivation. On day 10 after starting the SFEB, any one of valproic acid (VPA) (manufactured by Sigma-Aldrich), zonisamide (ZNS) sodium salt (manufactured by Sumitomo Dainippon Pharma Co., Ltd.), 17β estradiol (E2) (manufactured by Sigma-Aldrich), a glial cell line derived neurotrophic factor (GDNF) (manufactured by R & D Systems) and PBS(-) was added to the medium for 4 days. Each of VPA, ZNS and E2 was used at three different concentrations. Specifically, the concentration of VPA was 0.01 mM, 0.1 mM or 1 mM, the concentration of ZNS was 1 μM, 10 μM or 100 μM, and the concentration of E2 was 1 nM, 10 nM or 100 nM. GDNF was added at a concentration of […] to be used as a positive control. […]

`CCCC(CCC)C(=O)[O-].[Na+]` [VPA, sodium 2-propylpentanoate] returned a volume of graft in experiment [1] (VPA 150 mg/kg/day i.p., control 9.76±3.19 mm^3, no significant difference) of 4.33±2.14 mm^3. Besides, the “ratio of NeuN+ cells to the number of all the cells in a graft” value in experiment [1] (VPA 150 mg/kg/day i.p., control 57.7±9.4%) is 77.9±5.1%. The “number of TH+ cells in a graft” value in experiment [1] (VPA 150 mg/kg/day i.p., control 393±311 cells) is 1396±864 cells. For the same compound, in experiment [1] (VPA 150 mg/kg/day or ZNS 30 mg/kg/day i.p., control 24.7±9.3%), the “ratio of TH+ cells that were FOXA2+” value turned out to be 81.8±33.6%. Besides, the “number of midbrain dopaminergic neurons (TH+ FOXA2+) in a graft” value in experiment [1] (VPA 150 mg/kg/day or ZNS 30 mg/kg/day i.p., control 97±76 cells) turned out to be 984±770 cells. For the same compound, the “ratio of dopaminergic neurons undergoing apoptosis (TH+ neurons expressing caspase 3)” value in experiment [2] is “low”.

(Values after patent publication US20160106719A1, “Transplantation Adjuvant in Cell Therapy Using Neural Progenitor Cells” (SUMITOMO DAINIPPON PHARMA CO., LTD., priority 2013, published 2016).)
